Experimental data from patent US8338411B2, “Compounds” (Sanofi, priority 2007, dated 2012).
In brackets after ≈: the same amount, converted by molar mass.

Tests used:
Solubility = format: physicochemical
[1] = molecular target: T1, human adenosine A3 receptor (Homo sapiens, UniProt P0DMS8); test: Human adenosine A3 receptor binding ([125I]AB-MECA, CHO-hA3 membranes); settings: CHO-hA3 membrane, 0.5 nM [125I]AB-MECA
T1 construct: host or cells: CHO cells (CHO-hA3), membrane preparation
T1 sequence (P0DMS8 1-318): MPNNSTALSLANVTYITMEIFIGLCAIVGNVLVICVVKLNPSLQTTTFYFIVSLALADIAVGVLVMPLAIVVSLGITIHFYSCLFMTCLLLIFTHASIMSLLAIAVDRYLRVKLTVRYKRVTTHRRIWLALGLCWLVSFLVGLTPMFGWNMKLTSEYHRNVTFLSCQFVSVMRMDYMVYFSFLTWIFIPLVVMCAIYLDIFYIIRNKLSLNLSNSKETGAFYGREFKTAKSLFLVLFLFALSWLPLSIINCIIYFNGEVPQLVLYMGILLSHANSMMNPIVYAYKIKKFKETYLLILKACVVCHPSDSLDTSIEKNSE
Procedure: Human Adenosine A3 Receptor Binding
Preparing membrane suspension: ovarium cells of cloned […] hamster expressing human A3 receptor (further: CHO-hA3) are appropriately cultured. Achieving confluent cell layer, the cultivating liquid is removed from the cells by washing them with 37° C. PBS, then the cell are suspended in ice cold PBS, washed 3 times with PBS, centrifuged (1000×g 10 minutes) (Sigma 3K30) and homogenated using teflon homogenizer (B. Braun Potter S) at 1500/min rotation speed, for 15 sec. in the following buffer: 50 mM Tris, 10 mM MgCl2, 1 mM EDTA, pH 8.0. The homogenate is centrifuged (43.000 g, 10 min). The precipitate is suspended in the above buffer, protein concentration 0.1 mg/ml (Bradford method). Aliquots of the membrane preparatum are store at −80° C. hA3-CHO membrane preparation from Perkin Elmer was used alternatively.
Binding protocol: incubate CHO-hA3 membrane preparation (2 μg protein content) in the presence of the test material and 0.5 nM [^125I]AB-MECA (4-amino-3-iodo-benzyl-5′-N-methylcarboxamide-adenosine) (100.000 cpm) in incubation buffer (50 mM Tris, 10 mM MgCl2, 1 mM EDTA, 3 U/mL adenosine deaminase, pH 8.0). Define the non-specific radioligand binding in the presence of 100 μM R-PIA (N^6[L-2-phenylisopropyl]adenosine). Total volume of the reaction is 50 μL for 60 min at room temperature. […] Detect the radioactivity in gamma-counter (1470 Wizard, Wallac). […]
Based on the radioisotope saturation curves using Scatchard analysis (G. Scatchard, Ann. N.Y. Acad. Sci. 51:660, 1949) the dissociation constant (Kd) of the radioligand [^125I]AB-MECA on the CHO-hA3 membrane preparate is determined. From the Kd values, applying the Cheng-Prusoff equation (Y. J. Cheng and W. H. Prusoff, Biochem. Pharmacol. 22:3099, 1973) the affinity constants (Ki) of the test compounds are calculated from their IC50 values.

[2] = test system: Ovalbumin induced cell migration; test: Allergic mouse model (ovalbumin induced cell migration); format: in vivo; settings: % inhibition (full), p.o. mice 24 h, 10 mg/kg CMC
Procedure: Male BalbC mice of 20-25 g body weight are used for the experiments. The animals are first allergized with ovalbumin, then three weeks after the first ovalbumin injection they are involved into the experiment. On the day of the experiment the mice are treated (per os) with the experimental material (or with the vehicle containing no active ingredient), then after a suitable waiting period they are narcotized. After surgical opening of the trachea, 10 microliter of 1% ovalbumin solution is injected into the trachea.
The control group receives vehicle (physiological salt solution) into the trachea. After surgical closing of the trachea and treatment of the wound, the animals are separated and kept under their usual life conditions for 24 h.
After 24 hours the animals are over narcotized, the trachea is opened again and the lung is washed with buffer solution. The buffer solution is centrifuged, the cell sediment is resuspended again, and then the cells are counted. The total cell number is determined and the different leukocytes are sorted on the bases of the morphology. To determine the effectivity of the experimental material, the inhibition % is calculated in comparison to the control group. To determine the significance of the effect, statistical evaluation is carried out.

| solubility (Solubility; pH 1, simulated gastric fluid) [µg/mL] | solubility (Solubility; pH 6.5, aqueous buffer) [µg/mL] | solubility (Solubility; pH 7.5, aqueous buffer) [µg/mL] | IC50 [1] [nM] | Compound | Inhibition of cell migration [2] [%] |
| --- | --- | --- | --- | --- | --- |
| 500 (≈ 1020 µM) | 0.2 (≈ 0.408 µM) | 2 (≈ 4.08 µM) | 38 | COc1cccc(-c2nc3c(C#N)c(NCc4ccccc4)c4cc(N5CCOCC5)ccc4n3n2)c1 [Example 1, 2-(3-methoxyphenyl)-7-(morpholin-4-yl)-9-benzylamino-10-cyano-s-triazolo[1,5-a]quinoline] | 81 |
| 3000 (≈ 6330 µM) | 0.5 (≈ 1.06 µM) | 5 (≈ 10.6 µM) | 7.7 | CN1CCN(c2ccc3c(c2)c(NCc2ccccc2)c(C#N)c2nc(-c4ccccc4)nn23)CC1 [Example 17] | 88 |
| 2500 (≈ 5090 µM) | 0.5 (≈ 1.02 µM) | 13 (≈ 26.4 µM) | 11 | CN1CCN(c2ccc3c(c2)c(NCc2ccccc2)c(C#N)c2nc(-c4ccc(F)cc4)nn23)CC1 [Example 18] | 57 |
